Source: US12539284B2, “Aminoxy acid-based anti-cancer stem cell compounds and methods thereof” (Westlake University, priority 2019, dated 2026)
Like-named read-outs stand apart in the source and are kept apart here. Each block holds one molecule with its values, some of them ahead of it.

Legend:
Adherent Hey A8 cells = assay: Cell respiration, oxygen consumption rate (Seahorse XF24); assay type: cell-based, human; details: FIG. 10; for cell respiration response to subsequent addition of FCCP, antimycin A and rotenone: more obvious at higher doses
Procedure: Cell respiration was measured by using an XF24 Extracellular Flux Analyzer (Seahorse, Bioscience), which measures the oxygen consumption rate (OCR). Adherent Hey A8 cells were seeded at 50000 cells/well in […] of their culture medium and incubated for 24 h at 37° C. in humidified atmosphere with 5% CO2. The medium was then replaced with 670 μL/well of high-glucose DMEM without serum and supplemented with 1 mM sodium pyruvate and 2 mM L-glutamine. The oxygen consumption rate (OCR) was measured with an extracellular flux analyzer (Seahorse) at preset time intervals upon the preprogrammed additions of the following compounds: Oligomycin to 1 μM, FCCP to 500 nM, Antimycin A and Rotenone to 0.5 μM final concentrations.

HEY A8 CSCs [1] = assay: Immunoblotting of autophagy associated proteins P62 and LC3; assay type: cell-based, human; details: 24 h; CSCs at 10-fold lower concentration than cancer cells
Procedure: HEY A8 cancer cells and CSCs were treated with compound sff-2-112 (“Example 1”) or sff-2-132 (“Example 4”) for 24 h. Then cells were washed twice with PBS buffer and lysed for immuno-staining. The immunostaining methods were as same as it described in Example 10.

Huh 7 CD133- cells = assay: Cell viability (CellTiter-Glo) of sorted Huh 7 CD133- cells; assay type: cell-based; details: 48 h, different doses
Procedure: (§1) Huh-7 cells were stained with PE-conjugated CD133 antibody (HCC cancer stem cell marker) according to the manufacturer's instructions. Then CD133^+ cells (Huh 7 cancer stem cells) and CD133− cells were sorted by flow cytometry and seeded into 96-well plate with fresh DMEM medium. After 24 h, medium was changed to fresh medium with compound sff-2-112 (“Example 1”) or sff-2-124 (“Example 3”) at different doses. After 48 h, cell viability was analyzed by CellTiter-Glo luminescent agent.

HEY A8 CSCs [2] = assay: Immunoblotting of apoptosis associated proteins PARP, Caspase 3, Caspase 9; assay type: cell-based, human; details: 48 h; CSCs at 10-fold lower concentration than cancer cells
Procedure: For immunostaining experiment, cells were treated with compound sff-2-112 (“Example 1”) or compound sff-2-132 (“Example 4”) at different concentration for 48 h, then washed twice with PBS buffer and lysed with 2×SDS buffer with 0.1% Benzonase. Protein extracts were quantified by Pierce BCA Protein Assay Kit with a Nanodrop 2000 (Thermo Fisher Scientific) according to the manufacture's instruction. Protein lysates (˜50 μg/lane) were resolved by SDS-PAGE and transferred onto PVDF membranes. Membranes were incubated with membrane blocking solution (Thermo Fisher Scientific) for 1 h. The blots were then probed with the relevant primary antibodies in blocking solution at 4° C. overnight with gentle agitation. Membranes were washed with 0.1% Tween 20/TBS for 5 min three times and were incubated with Horseradish Peroxidase (HRP) conjugated secondary antibodies for 1 h at room temperature. Antigens were detected by SuperSignal West Pico PLUS Chemiluminescent Substrate (Thermo Fisher Scientific). Imaging was performed using a ChemiDoc™ XRS+ System (Bio-Rad).

HEY A8 cancer cells = assay: Cell viability (CellTiter-Glo) on adherent HEY A8 cancer cells; assay type: cell-based, human; details: read-out: IC50 Cancer Cell HeyA8
Procedure: Cell Cultures Human ovarian carcinoma cell lines HEY A8 and SKOV3 were gifts from Professor Alice Wong's group (The University of Hong Kong). Cells were grown in Dulbecco's Modified Eagle (DMEM) medium supplemented with 10% FBS and 1% penicillin/streptomycin at 37° C. in a humidified atmosphere containing […] CO2. Isolation and culture of spheres were performed in serum-free stem-cell-selective condition as described in literature Ip etl. Oncogene 2014, 5, 9133-9149. Briefly, 1-2 weeks after plating, non-adherent spherical clusters of cells could be observed and were separated from single cells by low speed centrifugation. After 8th to 10th passages, the non-adherent spherical clusters of cells appeared as distinct spheres. Using this selection condition, HEY A8 spheres (HEY A8 SP) or SKOV3 spheres (SKOV3 SP) could be enzymatically dissociated and reformed into spheres within 3 days under stem-cell-selective condition. To allow differentiation, dissociated sphere cells were plated on tissue culture plates in medium (MCDB 105:M199=1:1) supplemented with 10% FBS and 1% PS.
HEY A8 or SKOV3 cancer Cells were plated in triplicate in 0.1 mL full medium in 96-well plates for 24 h. After that, the medium was changed to the fresh prepared medium with various concentrations of compounds. Cells were incubated for another 48 h. Then the cell viability was measured by CellTiter-Glo® Luminescent Cell Viability reagent according to the manufacture's instruction. The luminescence at 550 nm was measured using a microplate reader (SpectraMax 340PC 384, Molecular Devices).

[3] = tested on: Huh 7 cancer stem cells (CD133+); assay: Cell viability (CellTiter-Glo) of sorted Huh 7 CD133+ cells; assay type: cell-based; details: 48 h, different doses
Procedure: as §1

SMILES: O=C(NO[C@H](COCc1ccccc1)C(=O)Nc1ccccc1)c1cc(C(F)(F)F)cc(C(F)(F)F)c1 [sff-2-112]
OCR after addition of compound (Adherent Hey A8 cells): OCR immediately increased
cell respiration response to subsequent addition of FCCP, antimycin A and rotenone (Adherent Hey A8 cells): significantly decreased
LC3-II and p62 levels (autophagy suppression) (HEY A8 CSCs [1]): Increased levels of both LC3-II and p62 in CSCs
death of Huh 7 CD133- cells (Huh 7 CD133- cells): induce the death
activation of PARP1, Caspase 3 and Caspase 9 (HEY A8 CSCs [2]): activation of protein PARP1, Caspase 3 and Caspase 9 was also observed in CSCs
IC50 (HEY A8 cancer cells; 48 h incubation): 23.4 ± 2.1 µM
death of Huh 7 CD133+ cells [3]: induce the death

IC50 (HEY A8 cancer cells; Homo sapiens, HEY A8, 48 h incubation): 52.9 ± 1.9 µM
SMILES: CC(C)(C)OC(=O)[C@@H](COCc1ccccc1)ONC(=O)c1cc(C(F)(F)F)cc(C(F)(F)F)c1 [sff-2-132]
OCR after addition of compound (Adherent Hey A8 cells): OCR immediately increased
cell respiration response to subsequent addition of FCCP, antimycin A and rotenone (Adherent Hey A8 cells): significantly decreased
LC3-II and p62 levels (autophagy suppression) (HEY A8 CSCs [1]): Increased levels of both LC3-II and p62 in CSCs
activation of PARP1, Caspase 3 and Caspase 9 (HEY A8 CSCs [2]): activation of protein PARP1, Caspase 3 and Caspase 9 was also observed in CSCs
